# Experimental data published in patent publication US20260069538A1, “CXCR4 ANTAGONIST LOADED LIPOSOMES AND SILICASOMES” (The Regents of the University of California, priority 2021, published 2026).
# Read-outs that look alike come from different tables or passages of the source.
# Columns and labels:
# [1] = for EE % / LC %: liposome DSPC:Chol:DSPE-PEG2000 3:2:0.15, drug feed ratio 20% (drug:lipids w/w)
# Protocol: This was followed by incubating the liposome suspension in the suspended CXCR4 antagonists using a feed ratio of 20%. The non-incorporated drug was removed by a PD-10 column.
# To perform the drug loading, Mavorixafor (MAV or AMD11070) was prepared as stock solution in PBS and added at 20% w/w over the total wt. of the lipids. The MAV/liposome mixed solution was then heated at 65° C. for 1 h then cooled at room temperature for 30 minutes. The separation of encapsulated liposomal MAV (L-MAV) and non-encapsulated MAV (free MAV) was again, through the use of PD10 size exclusion column.
# The elution profile of the free MAV is pre-determined by eluting free MAV through the PD10 and measuring the UV absorbance for each elution fraction at λmax 275 nm. In a typical run a 95%+ MAV recovery will be found between 10-20 mL fractions. The free-MAV fractions was collected and combined to quantify the free-MAV by UV at λmax 275 nm. Again, the L-MAV was collected from elution 2.75-5.75 mL (3 mL in total), the free-MAV was collected from 10-20 mL fractions.
# Based on the free-MAV quantification, the drug loading of L-MAV was back calculated by subtracting the free MAV from the initial MAV feeding=20% w/w. […] Based on the drug loaded L-MAV concentration (mg/mL), L-MAV was concentrated by using 50 mL VIVA-spin tubes at 30 kDa cut-off to a final concentration of 0.1 mg/mL (=0.5 mg/kg per 200 μL injection for a 20 g mouse).
# X4 HIV strains = details: read-out: inhibits the replication of X4 HIV strains (IC50); cited from earlier work
# [2] = Remote loading of CXCR4 antagonists in silicasomes (encapsulation efficiency, loading capacity); format: physicochemical; details: for EE % / LC %: silicasome
# Protocol: Following the application of a lipid bilayer, we used the weak basic properties of the of CXCR4 antagonists (AMD3100, AMD3465, AMD070) to attempt silicasome remote loading. To optimize the loading efficiency, two type of trapping agents, triethylammonium sucrose octasulfate (TEA8SOS) and ammonium sulfate ((NH4)2SO4) were tested. Briefly, for lipid coating, 40 mg/mL of the purified MSNPs were soaked in trapping agent solution (80 mM TEA8SOS or 300 mM (NH4)2SO4)) and were added to an ˜50% (w/v) lipids mixture (DSPC/Chol/DSPE-PEG2000, in the molar ratio of 3:2:0.15) solution in ethanol. The MSNP:lipid ratio was 1:1.25 (w/w). The suspension was sonicated using probe sonication (Ultrasonic Processor Model VCX130, 40% amplitude) at a 15 s/15 s on/off cycle.
# The free trapping agent was removed through size exclusion chromatography using Sepharose CL-4B resin with a HEPES-buffered dextrose solution (5 mM HEPES, 5% dextrose, pH 6.5) for elution. For drug import, trapping agent-loaded particles were mixed with drug and incubated at 65° C. for 0.5 hour. The drug-laden silicasomes were purified by centrifugation to remove the free drug and liposomes; then filtered with a 0.2 μm membrane for sterilization. The drug concentration was determined by either UV spectroscopy or HPLC. Particle hydrodynamic size and zeta potential were measured by a ZETAPALS instrument (Brookhaven Instruments Corporation). The final product was visualized by cryoEM (TF20 FEI Tecnai-G2) to confirm the uniformity and integrity of the coated lipid bilayer.
# [3] = tested on: metastatic BC models (including 4T1); details: in vivo; cited from earlier work
# human PDAC slices = details: cited from earlier work
# 4T1 tumors = test: Orthotopic 4T1 TNBC tumor model; details: for tumor shrinkage / tumor size: orthotopic 4T1, IV administration
# From the text: Orthotopic 4T1 tumors were established as described in FIGS. 2-4.
# EMT6 tumors = test: Orthotopic EMT6 breast cancer model; format: in vivo, mouse (Balb/c)
# KPC tumors = test: Orthotopic KPC model: tumor weight and immunophenotyping; format: in vivo, mice
# [4] = (NH4)2SO4, drug feed ratio 50% (drug:MSNP w/w)
# [5] = TEA8SOS, drug feed ratio 50% (drug:MSNP w/w)
# [6] = TEA8SOS, drug feed ratio 10% (drug:MSNP w/w)
# [7] = TEA8SOS, drug feed ratio 20% (drug:MSNP w/w)
Structure (SMILES),EE % ([1]; (NH4)2SO4) [%],LC % ([1]; (NH4)2SO4) [%],EE % ([1]; TEA8SOS) [%],LC % ([1]; TEA8SOS) [%],"EE % [2, 4] [%]","LC % [2, 4] [%]","EE % [2, 5] [%]","LC % [2, 5] [%]",also measured
c1ccc(CNCc2ccc(CN3CCCNCCNCCCNCC3)cc2)nc1 [AMD3465],68.4,13.7,37.4,7.5,34.5,17.3,25,12.5,IC50 (X4 HIV strains): 1 to 10 nM
"c1cc(CN2CCCNCCNCCCNCC2)ccc1CN1CCCNCCNCCCNCC1 [AMD3100, Plerixafor]",19,3.8,42.4,8.5,27,13.5,51,25.5,CTL recruitment [3]: increase CTL recruitment; blood perfusion [3]: improve blood perfusion; desmoplasia [3]: decrease desmoplasia; immunosuppression [3]: decrease immunosuppression; metastatic spread [3]: limit metastatic spread; CTL migration to the juxta-tumoral PDAC compartment (human PDAC slices; tumor cell slices): improve CTL migration to the juxta-tumoral PDAC compartment; CD8+ T-cell-mediated elimination of EpCAM+ PDAC cancer cells (human PDAC slices; tumor slice culture): did not exert similar effects
"NCCCCN(Cc1nc2ccccc2[nH]1)[C@H]1CCCc2cccnc21 [AMD11070, Mavorixafor]",55.8,11.2,84.3,16.9,68,34,70,35,"Typical MAV loading ([1]; liposome, 240 mM (NH4)2SO4, MAV feeding 20% w/w, back calculated from free MAV): 8-15 % w/w; best loading capacity (LC) in liposomes ([1]; liposomes): 17%; T cell exclusion in the tumor margin (immunohistochemistry) (4T1 tumors; 4T1 breast cancer tumors): interference in T cell exclusion in the margin; CD8+ spatial distribution during mIHC analysis (4T1 tumors; orthotopic 4T1): failed to show a significant effect; lung metastasis (IVIS imaging of explanted lungs) (4T1 tumors; orthotopic 4T1): significant metastasis reduction; tumor shrinkage / tumor size (4T1 tumors; listed as Free AMD11070): leads to tumor shrinkage; tumor shrinkage / tumor size (4T1 tumors; listed as free AMD11070): tumor shrinkage could be obtained; lung metastasis (IVIS imaging of explanted lungs) (4T1 tumors; orthotopic 4T1, listed as free AMD11070): significant impact on lung metastases; tumor growth / tumor shrinkage (EMT6 tumors): neither free nor L-AMD11070 were able to interfere in tumor growth; CXCR4 staining intensity (immunohistochemistry) (KPC tumors): encapsulated but not free AMD11070 delivery could significantly increase CXCR4 staining intensity; loading capacity ([2]; silicasome in which sucrose sulfate was used (FIG. 11)): 20%; EE % [2, 6]: 95%; LC % [2, 6]: 9.5%; EE % [2, 7]: 85%; LC % [2, 7]: 17%"
